Source: the kinase profiling compilation of Christmann-Franck et al. (2016)

Tests used:
Test in all cases: KINOMEscan competition binding
Settings in all cases: compound 10.0 µM
[1] = tested on: EGFR (human), P00533 [P753S; 747-752 del]
[2] = tested on: ABL1 (human), P00519 [M351T]
[3] = tested on: EGFR (human), P00533 [L861Q]
[4] = tested on: ABL1 (human), P00519 [E255K]
[5] = tested on: KIT (human), P10721 [V559D]
[6] = tested on: KIT (human), P10721 [D816V]
[7] = tested on: EGFR (human), P00533 [746-750 del]
[8] = tested on: PIK3CA (human), P42336 [E545K]
[9] = tested on: PIK3CA (human), P42336 [Q546K]
[10] = tested on: EIF2AK4 KD2 (human), Q9P2K8 [S808G]
[11] = tested on: FLT3 (human), P36888 [ITD]
[12] = tested on: KIT (human), P10721 [V559D/T670I]
[13] = tested on: FLT3 (human), P36888 [K663Q]
[14] = tested on: PIK3CA (human), P42336 [E545A]
[15] = tested on: FLT3 (human), P36888 [N841I]
[16] = tested on: PIK3CA (human), P42336 [I800L]
[17] = tested on: EGFR (human), P00533 [G719S]
[18] = tested on: PIK3CA (human), P42336 [C420R]
[19] = tested on: PIK3CA (human), P42336 [H1047Y]
Sequence of PIK3CA (human), P42336 [H1047Y] (P42336 whole entry H1047Y, looked up): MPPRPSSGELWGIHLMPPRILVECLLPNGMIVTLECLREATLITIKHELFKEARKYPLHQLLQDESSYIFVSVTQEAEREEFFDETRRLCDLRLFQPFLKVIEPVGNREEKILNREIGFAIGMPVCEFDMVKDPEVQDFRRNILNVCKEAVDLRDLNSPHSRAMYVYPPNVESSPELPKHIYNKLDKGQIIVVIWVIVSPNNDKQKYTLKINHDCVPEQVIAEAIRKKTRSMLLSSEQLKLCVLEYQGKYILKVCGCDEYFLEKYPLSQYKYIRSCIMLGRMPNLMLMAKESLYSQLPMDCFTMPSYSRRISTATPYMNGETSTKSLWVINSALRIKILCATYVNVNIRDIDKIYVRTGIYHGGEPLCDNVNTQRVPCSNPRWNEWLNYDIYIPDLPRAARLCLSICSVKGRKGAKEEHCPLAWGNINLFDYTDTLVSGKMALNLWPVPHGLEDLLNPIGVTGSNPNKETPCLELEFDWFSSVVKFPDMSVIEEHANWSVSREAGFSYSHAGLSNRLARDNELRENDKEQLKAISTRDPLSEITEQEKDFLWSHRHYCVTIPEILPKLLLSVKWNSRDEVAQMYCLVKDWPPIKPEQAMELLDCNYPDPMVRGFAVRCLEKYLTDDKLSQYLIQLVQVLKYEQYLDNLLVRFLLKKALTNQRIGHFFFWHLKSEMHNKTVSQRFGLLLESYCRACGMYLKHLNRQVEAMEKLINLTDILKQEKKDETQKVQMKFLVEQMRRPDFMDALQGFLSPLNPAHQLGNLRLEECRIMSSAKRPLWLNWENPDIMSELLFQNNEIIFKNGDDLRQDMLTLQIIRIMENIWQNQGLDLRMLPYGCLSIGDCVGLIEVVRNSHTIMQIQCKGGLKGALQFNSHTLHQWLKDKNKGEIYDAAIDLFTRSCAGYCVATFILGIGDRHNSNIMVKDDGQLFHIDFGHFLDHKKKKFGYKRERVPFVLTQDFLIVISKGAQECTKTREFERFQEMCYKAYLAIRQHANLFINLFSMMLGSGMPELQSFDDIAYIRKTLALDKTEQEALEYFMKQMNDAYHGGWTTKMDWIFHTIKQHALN

Sequence of KIT (human), P10721 [V559D] (P10721 whole entry V559D, looked up): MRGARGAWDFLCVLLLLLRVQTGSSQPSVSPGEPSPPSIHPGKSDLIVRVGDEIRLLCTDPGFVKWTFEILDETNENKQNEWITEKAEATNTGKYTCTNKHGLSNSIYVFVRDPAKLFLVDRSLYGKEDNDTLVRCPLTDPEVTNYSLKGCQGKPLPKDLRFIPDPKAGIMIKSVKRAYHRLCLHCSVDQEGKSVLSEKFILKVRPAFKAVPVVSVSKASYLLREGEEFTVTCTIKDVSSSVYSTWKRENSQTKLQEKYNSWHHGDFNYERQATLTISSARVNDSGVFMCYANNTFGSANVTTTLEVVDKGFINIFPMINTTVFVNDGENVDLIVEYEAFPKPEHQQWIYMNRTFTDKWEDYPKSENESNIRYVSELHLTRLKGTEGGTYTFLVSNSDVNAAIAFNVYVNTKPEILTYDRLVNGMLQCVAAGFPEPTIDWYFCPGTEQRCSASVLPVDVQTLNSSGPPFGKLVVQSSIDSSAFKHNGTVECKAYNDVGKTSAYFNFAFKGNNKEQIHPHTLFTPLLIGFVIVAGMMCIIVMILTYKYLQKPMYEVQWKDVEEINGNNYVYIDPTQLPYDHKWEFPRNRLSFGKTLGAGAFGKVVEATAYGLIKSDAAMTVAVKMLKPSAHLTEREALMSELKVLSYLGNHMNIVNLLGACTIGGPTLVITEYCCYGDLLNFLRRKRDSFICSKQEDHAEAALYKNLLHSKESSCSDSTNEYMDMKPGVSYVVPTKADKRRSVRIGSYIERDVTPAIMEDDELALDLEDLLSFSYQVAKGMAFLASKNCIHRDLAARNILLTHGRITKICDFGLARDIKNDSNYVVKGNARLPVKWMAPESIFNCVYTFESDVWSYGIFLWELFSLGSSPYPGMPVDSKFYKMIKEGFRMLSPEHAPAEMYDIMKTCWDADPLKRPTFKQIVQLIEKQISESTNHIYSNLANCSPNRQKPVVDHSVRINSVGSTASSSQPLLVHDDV
Sequence of PIK3CA (human), P42336 [Q546K] (P42336 whole entry Q546K, looked up): as the sequence (P42336 whole entry H1047Y, looked up) above, with Q546K, Y1047H counted along it
Sequence of PIK3CA (human), P42336 [E545A] (P42336 whole entry E545A, looked up): as the sequence (P42336 whole entry H1047Y, looked up) above, with E545A, Y1047H counted along it
Sequence of PIK3CA (human), P42336 [C420R] (P42336 whole entry C420R, looked up): as the sequence (P42336 whole entry H1047Y, looked up) above, with C420R, Y1047H counted along it
Sequence of EIF2AK4 KD2 (human), Q9P2K8 [S808G] (Q9P2K8 whole entry S808G, looked up): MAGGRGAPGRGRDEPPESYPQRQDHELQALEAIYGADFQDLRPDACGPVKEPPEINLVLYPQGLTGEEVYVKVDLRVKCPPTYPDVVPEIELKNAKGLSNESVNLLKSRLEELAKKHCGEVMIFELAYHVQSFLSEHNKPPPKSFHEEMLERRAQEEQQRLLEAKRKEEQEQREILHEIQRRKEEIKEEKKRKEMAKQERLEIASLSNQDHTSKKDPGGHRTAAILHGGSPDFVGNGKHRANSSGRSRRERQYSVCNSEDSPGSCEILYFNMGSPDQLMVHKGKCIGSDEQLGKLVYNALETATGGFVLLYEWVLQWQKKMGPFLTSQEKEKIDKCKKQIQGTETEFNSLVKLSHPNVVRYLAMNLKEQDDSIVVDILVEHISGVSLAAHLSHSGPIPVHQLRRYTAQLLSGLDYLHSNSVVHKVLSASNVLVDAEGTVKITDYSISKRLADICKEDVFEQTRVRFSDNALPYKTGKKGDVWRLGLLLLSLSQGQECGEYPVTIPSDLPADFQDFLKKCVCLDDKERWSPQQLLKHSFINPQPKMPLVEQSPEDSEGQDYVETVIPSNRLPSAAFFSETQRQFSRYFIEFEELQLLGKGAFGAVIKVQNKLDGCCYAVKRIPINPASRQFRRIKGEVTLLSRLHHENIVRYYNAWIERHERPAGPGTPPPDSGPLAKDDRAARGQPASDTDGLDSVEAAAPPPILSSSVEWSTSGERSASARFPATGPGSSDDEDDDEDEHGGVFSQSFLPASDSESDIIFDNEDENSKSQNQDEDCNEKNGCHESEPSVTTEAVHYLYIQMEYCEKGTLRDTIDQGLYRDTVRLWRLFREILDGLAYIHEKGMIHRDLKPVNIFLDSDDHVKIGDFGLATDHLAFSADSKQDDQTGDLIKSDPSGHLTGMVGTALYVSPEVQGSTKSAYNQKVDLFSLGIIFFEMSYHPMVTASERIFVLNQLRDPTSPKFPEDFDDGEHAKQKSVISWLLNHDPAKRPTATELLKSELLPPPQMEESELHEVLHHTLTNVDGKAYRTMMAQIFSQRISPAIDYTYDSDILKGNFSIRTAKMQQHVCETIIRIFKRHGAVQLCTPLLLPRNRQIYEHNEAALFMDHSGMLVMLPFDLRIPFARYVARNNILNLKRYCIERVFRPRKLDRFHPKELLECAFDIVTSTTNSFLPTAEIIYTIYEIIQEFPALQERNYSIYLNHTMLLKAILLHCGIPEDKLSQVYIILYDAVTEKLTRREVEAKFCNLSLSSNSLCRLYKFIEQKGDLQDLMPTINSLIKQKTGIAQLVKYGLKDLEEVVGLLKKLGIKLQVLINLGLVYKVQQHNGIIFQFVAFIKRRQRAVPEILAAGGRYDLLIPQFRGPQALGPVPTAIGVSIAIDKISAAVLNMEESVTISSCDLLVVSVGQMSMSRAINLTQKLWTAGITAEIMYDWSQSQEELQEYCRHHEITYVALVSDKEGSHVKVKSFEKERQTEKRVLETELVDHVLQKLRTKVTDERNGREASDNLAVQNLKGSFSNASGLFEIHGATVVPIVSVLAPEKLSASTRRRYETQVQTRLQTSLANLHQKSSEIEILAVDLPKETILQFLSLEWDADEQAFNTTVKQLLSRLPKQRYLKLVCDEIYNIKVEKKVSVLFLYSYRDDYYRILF
Sequence of KIT (human), P10721 [D816V] (P10721 whole entry D816V, looked up): as the sequence (P10721 whole entry V559D, looked up) above, with D559V, D816V counted along it
Sequence of PIK3CA (human), P42336 [E545K] (P42336 whole entry E545K, looked up): as the sequence (P42336 whole entry H1047Y, looked up) above, with E545K, Y1047H counted along it
Sequence of KIT (human), P10721 [V559D/T670I] (P10721 whole entry V559D/T670I, looked up): as the sequence (P10721 whole entry V559D, looked up) above, with T670I counted along it
Sequence of PIK3CA (human), P42336 [I800L] (P42336 whole entry I800L, looked up): as the sequence (P42336 whole entry H1047Y, looked up) above, with I800L, Y1047H counted along it

Row | SMILES | kinase still bound, per cent of control [1] | kinase still bound, per cent of control [2] | kinase still bound, per cent of control [3] | kinase still bound, per cent of control [4] | kinase still bound, per cent of control [5] | kinase still bound, per cent of control [6] | kinase still bound, per cent of control [7] | kinase still bound, per cent of control [8] | kinase still bound, per cent of control [9] | kinase still bound, per cent of control [10] | kinase still bound, per cent of control [11] | kinase still bound, per cent of control [12] | kinase still bound, per cent of control [13] | kinase still bound, per cent of control [14] | kinase still bound, per cent of control [15] | kinase still bound, per cent of control [16] | kinase still bound, per cent of control [17] | kinase still bound, per cent of control [18] | kinase still bound, per cent of control [19]
1 | C=CC(=O)Nc1ccc(C(=O)c2sc(Nc3ccc(N4CCN(C)CC4)cc3OC)nc2N)cc1 | 81% | 82% | 51% | 81% | 69% | 67% | 77% | 93% | 100% | 83% | 73% | 59% | 64% | 93% | 37% | 83% | 52% | 83% | 88%
2 | C=CC(=O)Nc1cc(-n2c(=O)ccc3cnc4ccc(-c5cn[nH]c5)cc4c32)ccc1C | 53% | 64% | 22% | 39% | 66% | 5.8% | 58% | 21% | 21% | 100% | 2.4% | 96% | 18% | 23% | 1.6% | 0.45% | 79% | 18% | 13%
3 | CN(C)C/C=C/C(=O)Nc1ccc(C(=O)Nc2cccc(Nc3nccc(-c4cccnc4)n3)c2)cc1 | 96% | 29% | 56% | 29% | 0.5% | 30% | 100% | 100% | 100% | 97% | 30% | 10% | 34% | 100% | 31% | 60% | 97% | 100% | 100%
4 | O=C1NC(=O)/C(=C/c2ccc3nccc(-c4ccncc4)c3c2)S1 | 74% | 56% | 87% | 71% | 30% | 63% | 81% | 0.75% | 1.3% | 7.4% | 47% | 76% | 37% | 0.1% | 39% | 12% | 78% | 0.4% | 0.9%
5 | CCN1CCN(C(=O)Cc2ccc(Nc3ncc(F)c(Nc4ccc(C(=O)Nc5ccccc5Cl)cc4)n3)cc2)CC1 | 38% | 19% | 52% | 6.2% | 0.5% | 0.75% | 48% | 97% | 23% | 0.4% | 0.1% | 21% | 0.4% | 25% | 0% | 88% | 78% | 57% | 62%
6 | COc1cc2c(Nc3ccc(NC(=O)c4ccccc4)cc3)ncnc2cc1OCCCN1CCOCC1 | 41% | 32% | 6.2% | 45% | 0% | 42% | 36% | 98% | 17% | 43% | 45% | 1.9% | 4% | 19% | 6% | 100% | 0.5% | 68% | 24%
7 | CC1=C(C(=O)Nc2cc3cn[nH]c3cc2F)C(c2ccc(C(F)(F)F)cc2)CC(=O)N1 (stereo not drawn) | 100% | 82% | 91% | 77% | 82% | 49% | 96% | 100% | 32% | 100% | 83% | 88% | 78% | 38% | 75% | 100% | 57% | 63% | 43%
8 | CCN1CCN(Cc2ccc(NC(=O)c3ccc(C)c(/C=C/c4cnc5[nH]ccc5c4OC)c3)cc2C(F)(F)F)CC1 | 0.55% | 2.2% | 0% | 1% | 0% | 0.65% | 3.8% | 100% |  | 0.6% | 0.35% | 0.05% | 0.05% | 92% | 0.25% | 100% | 0% | 100% | 90%
9 | NC(=O)Nc1cc(-c2cccc(F)c2)sc1C(=O)N[C@@H]1CCCNC1 | 4.6% | 0% | 1.5% | 0% |  |  | 4.2% | 100% | 83% | 0.3% | 0% |  | 0.1% | 16% | 0% | 100% | 0% | 62% | 36%
10 | COc1cc2ncn(-c3cc(OCc4ccccc4C(F)(F)F)c(C(N)=O)s3)c2cc1OC | 63% | 81% | 100% | 60% | 21% | 1.4% |  | 90% | 96% | 16% | 26% | 21% |  | 54% |  | 24% | 98% | 100% | 36%
